Reference: PubChem BioAssay AID652101 (NMMLSC, 2013)
The source made the active and inactive calls.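 The calls were made as follows: active = at least 15% inhibition at the top concentration together with an EC50 under 10 microM; inactive = the rest.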

Test: potency against LAMP-1 externalization in TALL-104 – TALL-104 cells, flow cytometry, CherryPick01, dose response (AID 652101);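 also: 0% = stimulated DMSO control and 100% = unstimulated control wells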
Details: TALL-104 lytic granule exocytosis, LAMP-1 flow cytometry; at 15.1 µM (top of the series); stimulated with 1 µM thapsigargin, 50 nM PMA

**Q.** With `OCCN1CCN(CC(O)COc2ccc(C34CC5CC(CC(C5)C3)C4)cc2)CC1` (stereo unspecified) as the compound, how does the inhibition read?
**A.** Its inhibition is 85.8% (inactive).

**Q.** With `CC(Nc1nc(N2CCNCC2)nc2ccccc12)c1ccccc1` (stereo unspecified) as the compound, how does the inhibition read?
**A.** The inhibition was 104% (inactive).

**Q.** For `CCOC(=O)c1c(NC(=O)CSc2nnnn2-c2ccccc2OCC)sc2c1CC(C)(C)NC2(C)C`, which inhibition is on record?
**A.** The inhibition was 84.6% (inactive).

**Q.** For `C=C(C)COc1ccc(-c2n[nH]c(C)c2-c2ccc(OC)cc2)c(O)c1`, which inhibition is on record?
**A.** Its inhibition is 106% (inactive).

**Q.** For `CN(c1ccccc1)S(=O)(=O)c1cccc(C(=O)NCCc2c[nH]c3ccccc23)c1`, which inhibition is on record?
**A.** Its inhibition is 42.1% (inactive).

**Q.** Which inhibition does the source give for `CCOc1cc(CNCCc2ccc(S(N)(=O)=O)cc2)ccc1OCc1ccc(Cl)cc1` here?
**A.** The inhibition was 48.5% (inactive).

**Q.** For `CC(C)c1ccccc1OCC(O)CN(CC(O)COc1cccc2ccccc12)C(C)C` (stereo unspecified), which inhibition is on record?
**A.** The inhibition was 101% (inactive).

**Q.** Which inhibition does the source give for `c1ccc(CCNc2ccnc3cc4ccccc4cc23)cc1` here?
**A.** The inhibition was 90.2% (inactive).

**Q.** For `CCCCNc1c(-c2ccc(OC)c(SC3CCCCC3)c2)nc2ccc(C)cn12`, which inhibition is on record?
**A.** Its inhibition is 103% (inactive).

**Q.** With `Cc1ccc(-c2nn(-c3ccccc3)cc2CNCc2ccccc2)cc1` as the compound, how does the inhibition read?
**A.** Its inhibition is 99.5% (inactive).

**Q.** For `Cc1ccc2nc(-c3ccc(NC(=S)NC4CC(C)(C)NC(C)(C)C4)cc3)sc2c1`, which inhibition is on record?
**A.** The inhibition was 5.48% (inactive).

**Q.** Which inhibition does the source give for `CSc1cccc(NC(=S)N(CCCN2CCCC2)Cc2cccn2Cc2ccc(Cl)cc2)c1` here?
**A.** Its inhibition is 65.2% (inactive).

**Q.** Which inhibition does the source give for `O=c1c(Cl)c2oc3ccccc3nc-2c2ccccc12` here?
**A.** The inhibition was -0.07% (inactive).

**Q.** For `O=C(COC(=O)[C@H](Cc1c[nH]c2ccccc12)NC(=O)c1ccc(Cl)cc1)Nc1ccc2c(c1)OCO2`, which inhibition is on record?
**A.** The inhibition was 108% (inactive).

**Q.** With `CCOC(=O)c1c(NC(C)=O)sc2c(OCC(O)CN(CC)CC)c(Br)ccc12` (stereo unspecified) as the compound, how does the inhibition read?
**A.** Its inhibition is 88.2% (inactive).

**Q.** With `COc1ccc(N2C(=O)CC(Sc3n[nH]c(-c4ccccc4)n3)C2=O)cc1` (stereo unspecified) as the compound, how does the inhibition read?
**A.** The inhibition was 95.2% (inactive).

**Q.** For `COC(=O)c1ccc(N2CCN(C)CC2)c(NC(=O)c2sc3ccccc3c2Cl)c1`, which inhibition is on record?
**A.** The inhibition was 70.3% (inactive).

**Q.** Which inhibition does the source give for `OC(CNCC(c1ccc(Cl)cc1Cl)c1c[nH]c2ccccc12)c1ccccc1` (stereo unspecified) here?
**A.** Its inhibition is 81.7% (inactive).

**Q.** Which inhibition does the source give for `Cc1cc(C(=O)CSc2nc3ccccc3[nH]2)c(C)n1CC1CCCO1` (stereo unspecified) here?
**A.** The inhibition was 89.3% (inactive).

**Q.** Which inhibition does the source give for `Oc1ccccc1Nc1nc(NCc2ccccc2)c2ccccc2n1` here?
**A.** The inhibition was 90.6% (inactive).

**Q.** For `CN1CCN(c2cc(-c3ccccc3)nc3cc(-c4ccc(F)cc4)nn23)CC1`, which inhibition is on record?
**A.** The inhibition was 61.3% (inactive).

**Q.** For `O=[N+]([O-])c1cccc(-c2cc(-c3cc(Br)ccc3O)[nH]n2)c1`, which inhibition is on record?
**A.** The inhibition was 67.8% (inactive).

**Q.** With `COc1ccc(N(CC(=O)NCCSc2ccccn2)S(=O)(=O)c2ccccc2)c(OC)c1` as the compound, how does the inhibition read?
**A.** Its inhibition is -7.92% (inactive).

**Q.** With `COc1ccc(Cl)c(-c2cc(C(=O)NCc3ccc(C(F)(F)F)cc3)[nH]n2)c1` as the compound, how does the inhibition read?
**A.** Its inhibition is 103% (inactive).

**Q.** With `Cc1ccc2c3c(cccc13)-c1ccccc1C2=O` as the compound, how does the inhibition read?
**A.** Its inhibition is 4.2% (inactive).

**Q.** Which inhibition does the source give for `C=CCNc1nc(NCc2ccc(N(C)C)cc2)c2sc(-c3ccccc3)cc2n1` here?
**A.** The inhibition was -13.9% (inactive).

**Q.** For `CCCCCc1c(-c2cccc(F)c2)ncn1CCc1ccccc1OC`, which inhibition is on record?
**A.** Its inhibition is 102% (inactive).

**Q.** With `COC(=O)c1c(NC(=O)c2ccc(C(=O)c3ccccc3)cc2)sc2c1CC(C)(C)NC2(C)C` as the compound, how does the inhibition read?
**A.** Its inhibition is 90.2% (inactive).

**Q.** For `CCOc1ccc(Cl)cc1-c1cc(C(=O)NCc2cccs2)[nH]n1`, which inhibition is on record?
**A.** Its inhibition is 79.8% (inactive).

**Q.** With `COc1ccc(-c2cc(NC(C)=O)c3ncc(-c4ccccc4)n3c2)c(OC)c1` as the compound, how does the inhibition read?
**A.** Its inhibition is 106% (inactive).

**Q.** Which inhibition does the source give for `O=C(Nc1ccc2nc(-c3cccs3)c(-c3cccs3)nc2c1)N1CCOCC1` here?
**A.** Its inhibition is -2.59% (inactive).

**Q.** With `Oc1ccccc1Nc1nc(NCc2ccco2)c2ccccc2n1` as the compound, how does the inhibition read?
**A.** The inhibition was 107% (inactive).

**Q.** With `CN(C)CCNC(=O)c1ccc(-c2cn3c(-c4ccc(Oc5ccccc5)cc4)cnc3cn2)cc1` as the compound, how does the inhibition read?
**A.** Its inhibition is 81.6% (inactive).

**Q.** For `Cc1ccc(-c2nn(-c3ccccc3)cc2CN(Cc2ccccc2)C(=O)c2ccco2)o1`, which inhibition is on record?
**A.** Its inhibition is 105% (inactive).

**Q.** With `CCc1ccc2nc(N(CCCN(C)C)C(=O)c3ccc(S(=O)(=O)N4CCc5ccccc5C4)cc3)sc2c1` as the compound, how does the inhibition read?
**A.** The inhibition was 81.8% (inactive).

**Q.** Which inhibition does the source give for `Cc1ccc2nc(-c3ccc(N4C(=O)CC(N5CCN(CCO)CC5)C4=O)cc3)sc2c1` (stereo unspecified) here?
**A.** Its inhibition is 83.1% (inactive).
